# Laboratory results as given in patent publication US20230117324A1, “OXAZINE MONOACYLGLYCEROL LIPASE (MAGL) INHIBITORS” (Hoffmann-La Roche Inc., priority 2018, published 2023).
# Molecular target: T1, MAGL (Homo sapiens, UniProt Q99685)
# T1 sequence (Q99685 1-303): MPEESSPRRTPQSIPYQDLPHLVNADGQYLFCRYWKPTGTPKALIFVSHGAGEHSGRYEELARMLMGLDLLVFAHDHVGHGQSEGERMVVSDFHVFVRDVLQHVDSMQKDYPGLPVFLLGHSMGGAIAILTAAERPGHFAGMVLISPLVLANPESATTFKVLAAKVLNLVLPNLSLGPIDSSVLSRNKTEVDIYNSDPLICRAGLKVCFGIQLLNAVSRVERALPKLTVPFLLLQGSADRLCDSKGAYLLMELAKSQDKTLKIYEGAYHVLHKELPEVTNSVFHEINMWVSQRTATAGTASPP
# Test: MAGL inhibition, 2-AG assay (hydrolysis of 2-arachidonoylglycerol, arachidonic acid by mass spectrometry)
# Assay type: biochemical
# Settings: 2-AG assay (footnote [b])
# Description: Alternatively, compounds were profiled for MAGL inhibitory activity by determining the enzymatic activity by following the hydrolysis of the natural substrate 2-arachidonoylglycerol (2-AG) resulting in arachidonic acid, which can be followed by mass spectrometry. This assay is hereinafter abbreviated “2-AG assay”.
# The 2-AG assay was carried out in 384 well assay plates (PP, Greiner Cat #784201) in a total volume of 20 μL. Compound dilutions were made in 100% DMSO (VWR Chemicals 23500.297) in a polypropylene plate in 3-fold dilution steps to give a final concentration range in the assay from 12.5 μM to […]. 0.25 μL compound dilutions (100% DMSO) were added to 9 μL MAGL in assay buffer (50 mM TRIS (GIBCO, 15567-027), 1 mM EDTA (Fluka, 03690-100 mL), 0.01% (v/v) Tween. After shaking, the plate was incubated for 15 min at RT. To start the reaction, 10 μL 2-arachidonoylglycerol in assay buffer was added. The final concentrations in the assay was […] and 8 μM 2-arachidonoylglyerol. After shaking and 30 min incubation at RT, the reaction was quenched by the addition of 40 μL of ACN containing 4 μM of d8-arachidonic acid. The amount of arachidonic acid was traced by an online SPE system (Agilent Rapidfire) coupled to a triple quadrupole mass spectrometer (Agilent 6460). A C18 SPE cartridge (G9205A) was used in an ACN/water liquid setup. The mass spectrometer was operated in negative electrospray mode following the mass transitions 303.1→259.1 for arachidonic acid and 311.1→267.0 for d8-arachidonic acid. The activity of the compounds was calculated based on the ratio of intensities [arachidonic acid/d8-arachidonic acid].
row,Compound,IC50 [nM]
1,"CC1CN(C(=O)N2CC[C@@H]3OCC(=O)N[C@@H]3C2)CCC1c1ccc(C(C)(F)F)cn1 (single isomer, unassigned) [Example 43, (4aR,8aS)-6-((3R or 3S)-4-(5-(1,1-Difluoroethyl)pyridin-2-yl)-3-methylpiperidine-1-carbonyl)hexahydro-2H-pyrido[4,3-b][1,4]oxazin-3(4H)-one]",156
2,"CC1CN(C(=O)N2CC[C@@H]3OCC(=O)N[C@@H]3C2)CCC1c1ccc(C(C)(F)F)cn1 (single isomer, unassigned) [Example 44, (4aR,8aS)-6-((3S or 3R)-4-(5-(1,1-Difluoroethyl)pyridin-2-yl)-3-methylpiperidine-1-carbonyl)hexahydro-2H-pyrido[4,3-b][1,4]oxazin-3(4H)-one]",381
3,"CC1CN(C(=O)N2CC[C@@H]3OCC(=O)N[C@@H]3C2)CC[C@@H]1c1ccc(C(C)(F)F)cn1 (single isomer, unassigned) [Example 45, (4aR,8aS)-6-((4R or 4S)-(5-(1,1-Difluoroethyl)pyridin-2-yl)-3-methylpiperidine-1-carbonyl)hexahydro-2H-pyrido[4,3-b][1,4]oxazin-3(4H)-one]",3300
4,"CC(c1ccc(C(F)(F)F)cc1)C1CCN(C(=O)N2CC[C@@H]3OCC(=O)N[C@@H]3C2)CC1 (single isomer, unassigned) [Example 46, (4aR,8aS)-6-(4-((R or S)-1-(4-(Trifluoromethyl)phenyl)ethyl)piperidine-1-carbonyl)hexahydro-2H-pyrido[4,3-b][1,4]oxazin-3(4H)-one]",3
5,"CC(c1ccc(C(F)(F)F)cc1)C1CCN(C(=O)N2CC[C@@H]3OCC(=O)N[C@@H]3C2)CC1 (single isomer, unassigned) [Example 47, (4aR,8aS)-6-(4-((S or R)-1-(4-(Trifluoromethyl)phenyl)ethyl)piperidine-1-carbonyl)hexahydro-2H-pyrido[4,3-b][1,4]oxazin-3(4H)-one]",514
6,"O=C1CO[C@H]2CCN(C(=O)N3CCC(C(OCC(F)(F)F)c4ccc(F)cc4)CC3)C[C@H]2N1 (single isomer, unassigned) [Example 57, (4aR,8aS)-6-(4-((R or S)-(4-Fluorophenyl)(2,2,2-trifluoroethoxy)methyl)piperidine-1-carbonyl)hexahydro-2H-pyrido[4,3-b][1,4]oxazin-3(4H)-one]",29
7,"O=C1CO[C@H]2CCN(C(=O)N3CCC(C(OCC(F)(F)F)c4ccc(F)cc4)CC3)C[C@H]2N1 (single isomer, unassigned) [Example 58, (4aR,8aS)-6-(4-((S or R)-(4-Fluorophenyl)(2,2,2-trifluoroethoxy)methyl)piperidine-1-carbonyl)hexahydro-2H-pyrido[4,3-b][1,4]oxazin-3(4H)-one]",7
8,"Cc1noc(CC(c2ccc(F)cc2)C2CCN(C(=O)N3CC[C@@H]4OCC(=O)N[C@@H]4C3)CC2)n1 (single isomer, unassigned) [Example 59, (4aR,8aS)-6-(4-((R or S)-1-(4-Fluorophenyl)-2-(3-methyl-1,2,4-oxadiazol-5-yl)ethyl)piperidine-1-carbonyl)hexahydro-2H-pyrido[4,3-b][1,4]oxazin-3(4H)-one]",60
9,"Cc1noc(CC(c2ccc(F)cc2)C2CCN(C(=O)N3CC[C@@H]4OCC(=O)N[C@@H]4C3)CC2)n1 (single isomer, unassigned) [Example 60, (4aR,8aS)-6-(4-((S or R)-1-(4-Fluorophenyl)-2-(3-methyl-1,2,4-oxadiazol-5-yl)ethyl)piperidine-1-carbonyl)hexahydro-2H-pyrido[4,3-b][1,4]oxazin-3(4H)-one]",67

# Now from value to compound:
row,IC50 [nM],Compound
1,0.4,"COc1cccc(C(c2ccc(F)cc2)C2CCN(C(=O)N3CC[C@@H]4OCC(=O)N[C@@H]4C3)CC2)c1 (single isomer, unassigned) [Example 62, (4aR,8aS)-6-[4-[(S or R)-(4-Fluorophenyl)-(3-methoxyphenyl)methyl]piperidine-1-carbonyl]-4,4a,5,7,8,8a-hexahydropyrido[4,3-b][1,4]oxazin-3-one]"
2,0.3,"COc1cccc(C(c2ccc(F)cc2)C2CCN(C(=O)N3CC[C@@H]4OCC(=O)N[C@@H]4C3)CC2)c1 (single isomer, unassigned) [Example 63, (4aR,8aS)-6-(4-((R or S)-(4-Fluorophenyl)(3-methoxyphenyl)methyl)piperidine-1-carbonyl)hexahydro-2H-pyrido[4,3-b][1,4]oxazin-3(4H)-one]"
3,0.2,"COc1cccc(C(c2ccccc2)C2CCN(C(=O)N3CC[C@@H]4OCC(=O)N[C@@H]4C3)CC2)c1 (single isomer, unassigned) [Example 64, (4aR,8aS)-6-(4-((S or R)-(3-Methoxyphenyl)(phenyl)methyl)piperidine-1-carbonyl)hexahydro-2H-pyrido[4,3-b][1,4]oxazin-3(4H)-one]"
4,0.2,"COc1cccc(C(c2ccccc2)C2CCN(C(=O)N3CC[C@@H]4OCC(=O)N[C@@H]4C3)CC2)c1 (single isomer, unassigned) [Example 65, (4aR,8aS)-6-(4-((R or S)-(3-Methoxyphenyl)(phenyl)methyl)piperidine-1-carbonyl)hexahydro-2H-pyrido[4,3-b][1,4]oxazin-3(4H)-one]"
5,0.4,"O=C1CO[C@H]2CCN(C(=O)N3CCC(C(c4ccccc4)c4cccc(OCCF)c4)CC3)C[C@H]2N1 (single isomer, unassigned) [Example 66, (4aR,8aS)-6-(4-((S or R)-(3-(2-Fluoroethoxy)phenyl)(phenyl)methyl)piperidine-1-carbonyl)hexahydro-2H-pyrido[4,3-b][1,4]oxazin-3(4H)-one]"
6,0.2,"O=C1CO[C@H]2CCN(C(=O)N3CCC(C(c4ccccc4)c4ccc(F)cc4)CC3)C[C@H]2N1 (single isomer, unassigned) [Example 68, (4aR,8aS)-6-(4-((S or R)-(4-Fluorophenyl)(phenyl)methyl)piperidine-1-carbonyl)hexahydro-2H-pyrido[4,3-b][1,4]oxazin-3(4H)-one]"
7,0.1,"Cc1ccc(C(c2ccc(F)cc2)C2CCN(C(=O)N3CC[C@@H]4OCC(=O)N[C@@H]4C3)CC2)cc1 (single isomer, unassigned) [Example 69, (4aR,8aS)-6-[4-[(S or R)-(4-Fluorophenyl)-(4-methylphenyl)methyl]piperidine-1-carbonyl]-4,4a,5,7,8,8a-hexahydropyrido[4,3-b][1,4]oxazin-3-one]"
8,4,"O=C1CO[C@H]2CCN(C(=O)N3CCC(C(c4ccccc4)c4ccc(OCCF)cc4)CC3)C[C@H]2N1 (single isomer, unassigned) [Example 70, (4aR,8aS)-6-[4-[(R or S)-[4-(2-Fluoroethoxy)phenyl]-phenylmethyl]piperidine-1-carbonyl]-4,4a,5,7,8,8a-hexahydropyrido[4,3-b][1,4]oxazin-3-one]"
9,0.2,"COc1ccc(C(c2ccc(F)cc2)C2CCN(C(=O)N3CC[C@@H]4OCC(=O)N[C@@H]4C3)CC2)cc1 (single isomer, unassigned) [Example 71, (4aR,8aS)-6-(4-((S or R)-(4-Fluorophenyl)(4-methoxyphenyl)methyl)piperidine-1-carbonyl)hexahydro-2H-pyrido[4,3-b][1,4]oxazin-3(4H)-one]"
10,0.1,"Cc1ccc(C(c2ccc(F)cc2)C2CCN(C(=O)N3CC[C@@H]4OCC(=O)N[C@@H]4C3)CC2)cc1 (single isomer, unassigned) [Example 72, (4aR,8aS)-6-(4-((R or S)-(4-Fluorophenyl)(p-tolyl)methyl)piperidine-1-carbonyl)hexahydro-2H-pyrido[4,3-b][1,4]oxazin-3(4H)-one]"
11,0.4,"COc1ccc(C(c2ccc(F)cc2)C2CCN(C(=O)N3CC[C@@H]4OCC(=O)N[C@@H]4C3)CC2)cc1OC (single isomer, unassigned) [Example 73, (4aR,8aS)-6-(4-((S or R)-(3,4-Dimethoxyphenyl)(4-fluorophenyl)methyl)piperidine-1-carbonyl)hexahydro-2H-pyrido[4,3-b][1,4]oxazin-3(4H)-one]"
12,2,"COc1ccc(C(c2ccccc2)C2CCN(C(=O)N3CC[C@@H]4OCC(=O)N[C@@H]4C3)CC2)cc1OC (single isomer, unassigned) [Example 74, (4aR,8aS)-6-(4-((R or S)-(3,4-Dimethoxyphenyl)(phenyl)methyl)piperidine-1-carbonyl)hexahydro-2H-pyrido[4,3-b][1,4]oxazin-3(4H)-one]"
